Measurements reported in BindingDB's records for doi:10.1016/S0960-894X(00)80511-9 (1992).

Biological target: Seed linoleate 13S-lipoxygenase-1 (Glycine max) (UniProt P08170)
Assay: Inhibitory activity against soybean 15-lipoxygenase was evaluated

Seed linoleate 13S-lipoxygenase-1 (Glycine max), sequence (P08170 whole entry, looked up): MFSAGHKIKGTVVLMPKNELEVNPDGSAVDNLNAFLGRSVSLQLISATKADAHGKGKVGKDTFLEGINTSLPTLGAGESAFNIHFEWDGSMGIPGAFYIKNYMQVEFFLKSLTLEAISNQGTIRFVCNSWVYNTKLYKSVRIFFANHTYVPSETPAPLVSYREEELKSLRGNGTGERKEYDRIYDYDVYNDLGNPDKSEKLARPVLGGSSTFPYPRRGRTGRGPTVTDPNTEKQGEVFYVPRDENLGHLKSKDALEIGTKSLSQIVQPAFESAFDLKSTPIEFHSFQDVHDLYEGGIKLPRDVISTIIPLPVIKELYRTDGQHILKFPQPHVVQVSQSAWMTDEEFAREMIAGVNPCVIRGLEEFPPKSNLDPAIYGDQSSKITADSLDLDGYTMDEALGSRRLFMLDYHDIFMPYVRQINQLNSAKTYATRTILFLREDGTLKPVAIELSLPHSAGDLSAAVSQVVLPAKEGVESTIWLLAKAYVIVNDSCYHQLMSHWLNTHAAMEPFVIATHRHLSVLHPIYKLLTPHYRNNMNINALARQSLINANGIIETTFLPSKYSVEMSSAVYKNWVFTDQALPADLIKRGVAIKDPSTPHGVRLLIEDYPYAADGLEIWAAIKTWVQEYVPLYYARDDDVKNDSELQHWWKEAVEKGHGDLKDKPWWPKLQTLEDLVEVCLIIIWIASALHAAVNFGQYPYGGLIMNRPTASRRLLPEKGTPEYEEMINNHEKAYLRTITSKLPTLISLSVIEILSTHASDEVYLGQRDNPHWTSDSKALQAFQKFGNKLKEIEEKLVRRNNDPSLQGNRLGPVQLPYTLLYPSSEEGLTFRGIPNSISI

IC50: 213 µM
SMILES: NC1=NN(c2cccc(C(F)(F)F)c2)CC1 [1-(3-Trifluoromethyl-phenyl)-4,5-dihydro-1H-pyrazol-3-ylamine]
